These results are taken from patent US8609870B2, “Treating various disorders using TrkB agonists” (Emory University, priority 2008, dated 2013).

SMILES strings stand for the structures.

Experiment [1] concerns TrkB. Nature of the experiment: TrkB activation in cortical neurons from knockout mouse pups. The experiment is classed as cell-based. The following applies: wild-type cortical neurons (pups of TrkB +/− mice). As to the method: (§1) To determine whether an identified active compound selectively activates TrkB receptor and prevents neuronal cell death, cortical neurons are prepared from homozygous pups of TrkB +/− mice, which are mated to the same genotype. The activation of TrkB and down stream indicators of TrkB activation, such as Capase-3, are monitored. To further assess whether an identified active compound blocks neuronal apoptosis in a TrkB dependent manner, cortical neurons are prepared from homozygous pups of […], which are mated to the same genotype. Again, the activation of TrkB and down stream indicators of TrkB activation, such as Capase-3, are monitored.
(§2) Additionally, the spontaneous caspase-3 activation in […] was suppressed by deoxygedunin.

The test system of another experiment is caspase-3. Nature of the experiment: Caspase-3 activation in cortical neurons from knockout mouse pups. It is filed as cell-based. As to the method:
as §1, §2

Another experiment relates to mice. The experiment in a line: Forced swim test. The experiment is classed as in vivo, mouse. As to the method:
To explore whether an identified active compound has an antidepressant effect like BDNF, a forced swim test is conducted. Adult male mice (2-3 months old) are randomly submitted, without a pre-swim, to a forced swim test of 6 minutes with immobility recorded in the last 4 minutes. The mice are injected intraperitoneally for 5 days with saline, imipramine (20 mg/kg), amitryptyline (15 mg/kg), or an identified active compound (5 mg/kg). The mice are allowed to adapt to the test room for 2 days, and the mice are placed in a clear glass cylinder with a diameter of 16 cm, half-filled with clear water at 24° C.
To investigate whether deoxygedunin mimicked BDNF in suppressing depression-like symptoms, a forced swim test after subchronic treatment of the mice for 5 days with various drugs was conducted. […] To assess whether the behavior responses by 7,8-DHF and deoxygedunin were mediated by TrkB receptor, TrkB F616A knockin mice were used. The transgenic mice were subjected to saline or 1NMPP1 treatment, respectively.

For another experiment, the target named is TrkA (Mus musculus, UniProt Q3UFB7). Nature of the experiment: TrkA activation in cortical neurons from knockout mouse pups. The experiment is classed as cell-based. The following applies: cortical neurons (pups of TrkB +/− mice). Set-up: endogenous in cells; host or cells: primary cortical neurons from mouse pups.
Experiment [2] has as its system hippocampal neurons. Nature of the experiment: Glutamate-triggered apoptosis in hippocampal neurons (MR(DEVD)2 / condensed nuclei). It is filed as cell-based. The settings on record: 0.5 μM preincubated 30 min, then 50 μM glutamate 16 h. As to the method: To create and test reporter cell lines. In order to identify small molecules that mimic BDNF and activate TrkB, TrkB stably transfected murine cell lines are created. The T48 and T62 cell lines are created by transfecting basal forebrain SN56 cells, which express negligible TrkB, with a TrkB expression construct. To test expression of TrkB, the cells are treated with BDNF, which is predicted to result in strong phosphorylation of Trk-490 and Akt activation in comparison to the TrkA NTR stably expressing T17 cell line indicating expression of TrkB. To test resistance to apoptosis, the SN56 cells and the T48 cell line are either untreated or treated with BDNF, and then are subjected to an apoptotic assay. The apoptotic assay involves treating the cells with 0.75 μM Staurosporine for 9 hours, and 1 hour before completing the experiment, the cells are treated with 10 μM MR (DEVD)2. The cells then are fixed with 4% paraformaldehyde for 15 minutes, washed with phosphate buffered saline (PBS), and incubated with Hoechst 33342 for 10 minutes. Cover slides are washed with PBS, mounted, and then the cells are examined using a fluorescent microscope to see which cells turn red upon caspase cleavage.
To compare the apoptosis inhibitory activity of identified active compounds, the compounds are preincubated with SN56 and T48 cells, and subsequently are subjected to the fluorescent apoptotic assay as described above. To examine whether these identified active compounds promote neuronal survival, hippocampal neurons are prepared and the cultures are pretreated with the identified active compounds for 30 minutes, followed by treatment with 50 μM glutamate for 16 hours.
Using a cell-based screen as described above in Example 1 (based on the anti-apoptotic action of TrkB signaling) and the chemical library from the Spectrum Collection (described above), 66 positive hits were generated, four of which were gedunin derivatives. […] In this assay, neurons with both cleaved caspase (MR (DEVD)2 red cells) and condensed nuclei (DAPI staining) were counted as apoptotic cells. […]

The subject of experiment [3] is hippocampal neurons. The experiment in a line: Oxygen-glucose deprivation (OGD) apoptosis in hippocampal neurons. The following applies: apoptotic ratio compared to BDNF and DMSO. The experiment is classed as cell-based.
Another experiment deals with T1, TrkB F616A (Mus musculus, UniProt P15209, F616A).
T1 construct: cortical neurons from TrkB F616A knockin mice; endogenous in cells; host or cells: primary cortical neurons from TrkB F616A knock-in mice
Nature of the experiment: TrkB phosphorylation in cortical neurons from TrkB F616A knockin mice. It is filed as cell-based. The following applies: inhibitor pretreatment. As to the method:
(§3) To explore whether the neuroprotective action of an identified active compound is dependent on TrkB activation in vivo, TrkB F616A knockin mice are used. […] To further assess whether an identified active compound can mimic BDNF, cortical neurons are prepared from TrkB F616A knockin mice. The cortical neurons are pretreated for 30 minutes with either K252a Trk tyrosine kinase inhibitor (100 nM) or 1NMPP1 inhibitor (100 nM) followed by 0.5 μM identified active compound for 30 minutes.
(§4) […] inversely correlated with TrkB activation by deoxygedunin (FIG. 20, top and middle panels).

Another experiment concerns Akt and Erk1/2. Nature of the experiment: Akt and Erk1/2 activation in cortical neurons from TrkB F616A knockin mice. The experiment is classed as cell-based, mouse. As to the method: as §3, §4
The subject of the next experiment is TrkB F616A knockin mice. The experiment in a line: KA-provoked apoptosis (caspase-3) in TrkB F616A knockin mice. It is filed as in vivo, mouse. As to the method: To determine if 1NMPP1 makes neurons treated with an identified active compound vulnerable to KA-provoked neuronal cell death, TrkF616A knockin mice are fed with 1NMPP1 (25 mM) in drinking water one day prior to pharmacological reagent treatment. The next day, the mice are intraperitoneally injected with KA (25 mg/kg), or an identified active compound (5 mg/kg) 4 hours prior to KA injection. The control mice are injected with either KA or an identified active compound alone, or the mice are administered an identified active compound 4 hours before KA. After 4 days, the mice are sacrificed and the brains are homogenized and ultracentrifuged. The supernatant then is employed for SDS-PAGE and immunoblotting analysis.
as §4

The subject of experiment [4] is TrkB. Nature of the experiment: TrkB phosphorylation in hippocampal neurons (immunofluorescent staining, immunoblotting). It is filed as cell-based. The settings on record: K252a pretreatment of hippocampal neurons. As to the method:
Unless specifically described, primary hippocampal neurons are seeded on poly-L lysine coated coverslips in a 12-well plate. After 7 days in vitro, the neurons are treated with 100 ng/ml BDNF or variety of flavone compounds (1 μM) for 30 minutes, and then are washed with PBS. Cells are fixed with 3% formaldehyde in PBS at room temperature for 10 minutes. The cells then are permeabilized and blocked by 0.4% Triton X-100 and 2% FBS in PBS at room temperature for 15 minutes, are washed with PBS three times, and are treated with anti-MAP2 (1:200) and anti-phospho-TrkB antibodies (1:500). After staining with FITC- or Rhodamine-conjugated secondary antibody, the coverslips are mounted on slides. Fluorescent images are taken by a fluorescence microscope.
BDNF binding to TrkB induces its autophosphorylation and, subsequently, activation of downstream kinase pathways including MAPK and PI3/Akt. […] To examine whether an identified active compound stimulates TrkB-mediated downstream signaling cascades, Western analysis is performed and the activation of Akt and Erk also is monitored. […] To probe the time course of TrkB activation triggered by an identified active compound, hippocampal neurons are treated with an identified active compound at 500 nM and phosphorylation of Erk and Akt is determined over time by Western analysis. […]

The next experiment deals with Erk1/2 and Akt. Nature of the experiment: Erk1/2 and Akt activation in hippocampal neurons (Western blot). The experiment is classed as cell-based. The following applies: K252a pretreatment of hippocampal neurons. As to the method: BDNF binding to TrkB induces its autophosphorylation and, subsequently, activation of downstream kinase pathways including MAPK and PI3/Akt. To explore whether an identified active compound triggers TrkB activation, immunofluorescent staining on hippocampal neurons with anti-phospho TrkB antibody is conducted. To examine whether an identified active compound stimulates TrkB-mediated downstream signaling cascades, Western analysis is performed and the activation of Akt and Erk also is monitored. To test whether the stimulatory effect of an identified active compound is mediated through TrkB, cells are either untreated or treated with K252a, a selective inhibitor of the tyrosine kinase activity of the Trk family of neutrophin receptors. Cells treated with K252a block TrkB tyrosine phosphorylation in cells exposed to an identified active compound. To probe the time course of TrkB activation triggered by an identified active compound, hippocampal neurons are treated with an identified active compound at 500 nM and phosphorylation of Erk and Akt is determined over time by Western analysis. Whether stimulation of Erk and Akt by an identified active compound occurs in a dose dependent manner also is determined.
Both Akt and Erk1/2 were robustly activated by these molecules as well). […] The minimal required drug concentration was about 100-250 nM (see FIG. 7, right panels). […] To assess whether deoxygedunin provokes TrkB activation in the brain, mice (i.p.) were injected with a dose of 5 mg/kg for various time points. […] To establish that deoxygedunin is orally bioactive in provoking TrkB activation, two to three month old C57BL/6J mice were orally injected with various doses of 7,8-dihydroxyflavone or deoxygedunin then sacrificed 2 to 4 hours after administration. Brain lysates were prepared and analyzed by immunoblotting (see FIG. 10).

T1 sequence (P15209 32-821 F616A): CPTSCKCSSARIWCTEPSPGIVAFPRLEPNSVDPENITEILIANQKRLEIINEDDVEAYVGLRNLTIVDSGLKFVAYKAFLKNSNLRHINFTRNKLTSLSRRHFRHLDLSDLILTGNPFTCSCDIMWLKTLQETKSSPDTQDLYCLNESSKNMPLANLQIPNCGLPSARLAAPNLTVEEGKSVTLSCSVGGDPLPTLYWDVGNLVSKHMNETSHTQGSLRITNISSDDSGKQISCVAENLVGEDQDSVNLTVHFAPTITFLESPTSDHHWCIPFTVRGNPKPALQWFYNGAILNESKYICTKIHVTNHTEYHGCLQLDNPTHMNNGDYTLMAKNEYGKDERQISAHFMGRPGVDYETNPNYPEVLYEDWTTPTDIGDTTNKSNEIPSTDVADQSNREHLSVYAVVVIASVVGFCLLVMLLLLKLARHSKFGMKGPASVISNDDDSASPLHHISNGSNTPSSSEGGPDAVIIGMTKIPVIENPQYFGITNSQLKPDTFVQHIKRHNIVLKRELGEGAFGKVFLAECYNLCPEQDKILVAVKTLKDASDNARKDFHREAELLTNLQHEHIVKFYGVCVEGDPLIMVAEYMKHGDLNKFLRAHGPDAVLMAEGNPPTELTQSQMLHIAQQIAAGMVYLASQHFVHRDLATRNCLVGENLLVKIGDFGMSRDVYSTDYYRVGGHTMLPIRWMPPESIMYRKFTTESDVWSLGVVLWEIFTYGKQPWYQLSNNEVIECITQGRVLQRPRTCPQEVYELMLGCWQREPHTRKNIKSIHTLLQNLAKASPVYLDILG
Sequence of TrkA (Q3UFB7 34-799): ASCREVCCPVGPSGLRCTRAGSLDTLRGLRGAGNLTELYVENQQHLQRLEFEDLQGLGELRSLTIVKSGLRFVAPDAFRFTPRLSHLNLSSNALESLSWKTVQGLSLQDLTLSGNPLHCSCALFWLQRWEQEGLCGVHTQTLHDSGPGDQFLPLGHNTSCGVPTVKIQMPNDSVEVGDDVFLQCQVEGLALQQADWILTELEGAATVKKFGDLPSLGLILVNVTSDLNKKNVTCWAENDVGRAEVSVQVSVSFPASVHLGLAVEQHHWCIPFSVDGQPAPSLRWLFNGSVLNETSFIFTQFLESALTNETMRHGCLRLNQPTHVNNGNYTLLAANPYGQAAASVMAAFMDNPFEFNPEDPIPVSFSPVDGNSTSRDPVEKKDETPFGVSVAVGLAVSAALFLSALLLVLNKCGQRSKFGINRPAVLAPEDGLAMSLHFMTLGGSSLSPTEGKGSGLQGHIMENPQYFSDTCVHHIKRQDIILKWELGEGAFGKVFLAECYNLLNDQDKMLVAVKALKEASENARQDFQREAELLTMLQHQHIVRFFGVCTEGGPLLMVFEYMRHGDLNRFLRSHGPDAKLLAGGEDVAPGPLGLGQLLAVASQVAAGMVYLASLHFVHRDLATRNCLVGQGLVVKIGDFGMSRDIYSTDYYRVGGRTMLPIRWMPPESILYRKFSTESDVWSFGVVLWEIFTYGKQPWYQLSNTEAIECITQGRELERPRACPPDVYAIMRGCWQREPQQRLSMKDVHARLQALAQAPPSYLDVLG

In the case of `CN(C)CCCN1c2ccccc2CCc2ccccc21` [imipramine, reference compound], the TrkB activation entry with TrkB [1] is on record as “not imipramine”. The “blockade of glutamate-provoked caspase-3 activation” value in the experiment with caspase-3 (wild-type cortical neurons) is “failed to block caspase-3 activation”. Moreover, the swimming immobility result in the experiment with mice (mice, subchronic treatment 5 days, imipramine 20 mg/kg, deoxygedunin 5 mg/kg) is listed as “significantly decreased”. Further, on TrkA, the TrkA activation result was “not imipramine”.

Turning to `CC(=O)O[C@@H]1CC2C(C)(C)C(=O)CC[C@]2(C)C2CC[C@]3(C)C(=CC(=O)O[C@H]3c3ccoc3)[C@@]21C` (some centres unmarked) [dihydrodeoxygedunin], in the experiment on hippocampal neurons [2], the “protective effect (apoptosis inhibitory activity)” value is listed as “protective effect”. The “protective effects on hippocampal neurons under OGD” value in the experiment with hippocampal neurons [3] was “potent protective effects”.

Consider `CC(C)(C)n1nc(Cc2cccc3ccccc23)c2c(N)ncnc21` [1NMPP1], for which, on TrkB F616A, the “blockade of BDNF-provoked TrkB phosphorylation” value was “selectively blocked” and the “blockade of deoxygedunin provoked TrkB phosphorylation” value is listed as “selectively blocked”. Further, in the experiment on Akt and Erk1/2, the “blockade of BDNF-triggered Akt and Erk1/2 activation” value is “blocked BDNF-triggered Akt and Erk1/2 activation”; the “effect on Akt and Erk1/2 activation by deoxygedunin” value is “diminished Akt and Erk1/2 activation”. Besides, the “effect of 1NMPP1 pretreatment on deoxygedunin's protective effect” value with TrkB F616A knockin mice (F616A mice, KA) is “diminished deoxygedunin's protective effect”. For the same molecule, the “effect of 1NMPP1 pretreatment on KA-provoked apoptosis” value in the experiment on TrkB F616A knockin mice (TrkB F616A mice) is on record as “elevated KA-provoked apoptosis”. Besides, the “immobility time, 1NMPP1-treated versus saline” value in the experiment with mice (TrkB F616A knockin mice, no test drug) is given as “No significant difference”.

For the molecule `COC(=O)[C@@]1(O)C[C@H]2O[C@]1(C)n1c3ccccc3c3c4c(c5c6ccccc6n2c5c31)C(=O)NC4` [K252a], the “blockade of deoxygedunin-triggered TrkB activation” value in the experiment with TrkB [4] was “substantially blocked”. Besides, in the experiment on Erk1/2 and Akt, the “blockade of deoxygedunin-provoked downstream Akt and MAPK signalings” value was “blocked”. Moreover, at TrkB F616A, the “blockade of BDNF-provoked TrkB phosphorylation” value is given as “not K252a” and the “blockade of deoxygedunin provoked TrkB phosphorylation” value is “not K252a”. For the same molecule, the “blockade of BDNF-triggered Akt and Erk1/2 activation” value in the experiment with Akt and Erk1/2 is “not K252a”.

As for `CN(C)CCC=C1c2ccccc2CCc2ccccc21` [amitriptyline], the TrkB activation entry with TrkB [1] is “activated both TrkA and TrkB”. Moreover, the “blockade of glutamate-provoked caspase-3 activation” value with caspase-3 (TrkB −/− cortical neurons) and in the experiment with caspase-3 (wild-type cortical neurons) was “weakly suppressed caspase-3 activation” in each case. The TrkA activation entry at TrkA is “activated both TrkA and TrkB”.

Consider `O=c1cc(-c2ccccc2)oc2c(O)c(O)ccc12` [7,8-dihydroxyflavone], for which the TrkB activation entry in the experiment on TrkB [1] is “selectively activated TrkB”. Besides, the entries for the “blockade of glutamate-provoked caspase-3 activation” value in the experiment on caspase-3 (TrkB −/− cortical neurons) and in the experiment with caspase-3 (wild-type cortical neurons) were “not TrkB −/− neurons” and “substantially blocked”, respectively. Also, the TrkA activation entry on TrkA is listed as “not TrkA”.
